Test results from patent US20090297656A1, “Liquid Formulation Based On a Guanidinoacetic Acid Component” (priority 2005, published 2009).
Like-named read-outs stand apart in the source and are kept apart here. Each block holds one compound with its values, some of them ahead of it.

What was measured:
[1] = Storage stability in aqueous solution at pH 3.5 and room temperature; assay type: physicochemical; conditions: pH 3.5, room temperature
Text: The rate of breakdown is dependent on the pH of the solution and temperature, with the concentration not playing a role. Particularly in the acid pH region, this breakdown to creatinine proceeds very rapidly. At room temperature and pH 3.5, creatine is already more than 20% converted to creatinine after 3 days and the physiological effect is lost. A pH of 3.5 is a typical pH for, for example, a soft drink. Owing to the rapid breakdown of creatine in this environment, the use of creatine, in particular creatine monohydrate, in aqueous or moist formulations for human and animal nutrition is virtually excluded. Even the pH in the stomach of 1 to 2 can, depending on the residence time, lead to significant breakdown of creatine to form creatinine.
According to FIG. 1, the storage stability of creatine was determined in comparison with a mixture of 4 parts by weight of guanidinoacetic acid and 6 parts by weight of betaine in aqueous solution at pH 3.5 and room temperature: whereas creatine, after 3 days, is already more than 20% converted to creatinine, in the mixture of guanidinoacetic acid and betaine under identical conditions, after 90 days, 95% of the initial amount was still detectable as guanidinoacetic acid.

[2] = cited from earlier work
Solubility in water = assay type: physicochemical; conditions: room temperature
Text: In comparison with creatine, guanidinoacetic acid has a lower solubility in water (3.8 g per liter at room temperature). […] Therefore, for example, even in half a liter of an aqueous drink, a physiologically meaningful daily dose of the guanidinoacetic acid component can be incorporated without problem.

[3] = Stability under pasteurization or sterilization of aqueous preparations; assay type: physicochemical; conditions: in contrast to creatine
Text: In the production process, aqueous preparations, such as those according to the invention, also, are generally pasteurized or sterilized. […] These advantages were unexpected in this manner in their totality.

Staphyllococcus aureus = conditions: animal experiments; cited from earlier work
[4] = 0.032% guanidinoacetic acid in hens' feed
[5] = chickens, less than 0.1% guanidinoacetic acid in the feed

stability under the stated conditions [1]: completely stable
SMILES: C[N+](C)(C)CC(=O)O [Betaine, betaine]

converted to creatinine ([1]; after 3 days): more than 20%
SMILES: CN(CC(=O)O)C(=N)N [creatine, reference compound]
weight gain ([2]; chickens, 0.2% creatine in the feed): 4%

solubility in water (Solubility in water): 3.8 g per liter
stability under pasteurization/sterilization conditions [3]: outstanding stability
SMILES: N=C(N)NCC(=O)O [guanidinoacetic acid]
improved feed utilization [2, 4]: 3%
weight gain [2, 4]: 3%
lower feed consumption compared with the control group [2, 5]: 6%
weight gain compared with the control group [2, 5]: 7%
use against bacterial infections (Staphyllococcus aureus): successfully used
